These results are taken from US6822100B2 (Bristol-Myers Squibb Company, priority 2001, dated 2004).

Assay [1] addresses T1, human serotonin transporters (Homo sapiens, UniProt P31645).
T1 construct: expressed in transfected cells; host or cells: HEK-293 (HEK-hSERT), membrane homogenates
In words: Serotonin Transporter Binding Assay. As to conditions: HEK-hSERT cell membranes, 1 nM [3H]-citalopram, Cheng and Prusoff. How it is done: HEK-293 cells that stably express human serotonin transporters (HEK-hSERT cells) were grown at 37° C. in 5% CO2 as a monolayer in medium consisting of EMEM supplemented with 10% fetal bovine serum and G418 sulfate (500 μg/ml). To prepare membranes for radioligand binding experiments, cells were rinsed twice with phosphate-buffered saline (138 mM NaCl, 4.1 mM KCl, 5.1 mM Na2PO4, 1.5 mM […], 11.1 mM glucose, pH 7.4). Cells were transferred from plates to polypropylene tubes (16×100 mm), centrifuged at 1,200×g for 5 min and were frozen at −80° C. until assay. Following centrifugation, pellets were resuspended by homogenization in buffer consisting of 50 mM Tris (pH 7.7 at 25° C.), 120 mM NaCl and 5 mM KCl and then centrifuged at 32,000×g for 10 min. Following centrifugation, supernatants were discarded and pellets were resuspended in buffer consisting of 50 mM Tris (pH 7.4 at 25° C.), 150 mM NaCl and 5 mM KCl. Membrane homogenates (200 μl/plate) were incubated with 1 nM [^3H]-citalopram (specific activity=85 Ci/mmol) and increasing concentrations of test compounds for 1 hr at 25° C. in a total volume of 250 μl. The assay buffer consisted of 50 mM Tris (pH 7.4 at 25° C.), 120 mM NaCl and 5 mM KCl (pH 7.4 with conc. HCl). Plates were incubated for 1 hr at 25° C., then filtered through 0.5% PEI treated Whatman GF/B filters using a Brandel cell harvester. Filters were washed three times with 3 ml of ice-cold tris wash buffer. Non-specific binding was defined with 10 μM fluoxetine. Amount of radioligand bound in the presence and absence of competitor was analyzed by plotting (−)log drug concentration versus the amount of radioligand specifically bound. The midpoint of the displacement curve (IC50, nM), signifies the potency. Ki values were calculated using the method of Cheng and Prusoff (1973).

Assay [2] concerns the target T2, recombinant human dopamine D2L receptors (Homo sapiens, UniProt P14416).
T2 construct: expressed in transfected cells; host or cells: HEK-293 (HEK-D2L), membrane homogenates
In words: Dopamine Binding Assay. The note with it: HEK-D2L cell membranes, 150 pM [3H]-spiperone, Cheng and Prusoff. On the procedure: HEK-293 cells that stably express recombinant human dopamine D2L receptors (HEK-D2L cells) were grown at 37° C. in 5% CO2 as a monolayer in medium consisting of EMEM supplemented with 10% fetal bovine serum and G418 sulfate (500 μg/ml). To prepare membranes for radioligand binding experiments, cells were rinsed twice with phosphate-buffered saline (138 mM NaCl, 4.1 mM KCl, 5.1 mM Na2PO4, 1.5 mM KH2PO2 11.1 mM glucose, pH 7.4), and incubated for 5-10 min. at 4° C. in hypotonic lysis buffer consisting of 10 mM Tris (pH 7.4) and 5 mM EDTA. Cells were transferred from plates to polypropylene tubes (16×100 mm), homogenized and centrifuged at 32,000×g for 20 min. Following centrifugation, pellets were resuspended by homogenization in buffer consisting of 50 mM Tris (pH 7.7 at 25° C.) and 1 mM EDTA. Homogenates were stored at −80° C. until needed. On the day of an experiment, homogenates were thawed then centrifuged at 32,000×g for 20 min. Following centrifugation, supernatants were discarded and pellets were resuspended in assay buffer consisting of 50 mM Tris (pH 7.4 at 25° C.), 1 mM EDTA and 6 mM MgCl2. Membrane homogenates (˜5 μg) were incubated with 150 pM [^3H]-spiperone (Amersham Life Science) and increasing concentrations of test compounds for 1.5 hr at 22° C. in a total volume of 400 μl. Reactions were stopped by addition of ice-cold assay buffer and filtration over glass fiber filters (Whatman GFB, pre-soaked in 0.05% polyethylenimine) using a microtitre format Brandel cell harvester. Filters were washed with 3 ml of ice-cold assay buffer. Non-specific binding was defined with 2 μM (+)butaclamol. Ki values were calculated using the method of Cheng and Prusoff (1973). Protein concentrations were determined by the method of Bradford (1976) with BSA as a standard.

Molecules are shown by their SMILES. Like-named read-outs stand apart in the source and are kept apart here. Bounds are passed on as bounds.

T2 sequence (P14416 whole entry): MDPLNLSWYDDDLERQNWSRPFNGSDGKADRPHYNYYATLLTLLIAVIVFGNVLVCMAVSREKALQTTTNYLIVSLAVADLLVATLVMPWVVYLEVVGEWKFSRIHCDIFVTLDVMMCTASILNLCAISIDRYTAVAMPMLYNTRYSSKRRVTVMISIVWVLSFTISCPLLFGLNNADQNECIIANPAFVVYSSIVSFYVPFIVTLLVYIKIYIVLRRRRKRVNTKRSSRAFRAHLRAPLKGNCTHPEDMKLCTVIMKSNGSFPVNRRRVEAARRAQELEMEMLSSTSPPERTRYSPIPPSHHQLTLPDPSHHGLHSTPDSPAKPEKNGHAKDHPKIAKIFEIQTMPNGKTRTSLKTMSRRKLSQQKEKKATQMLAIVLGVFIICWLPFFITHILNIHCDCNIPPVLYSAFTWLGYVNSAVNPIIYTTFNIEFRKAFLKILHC
T1 sequence (P31645 whole entry): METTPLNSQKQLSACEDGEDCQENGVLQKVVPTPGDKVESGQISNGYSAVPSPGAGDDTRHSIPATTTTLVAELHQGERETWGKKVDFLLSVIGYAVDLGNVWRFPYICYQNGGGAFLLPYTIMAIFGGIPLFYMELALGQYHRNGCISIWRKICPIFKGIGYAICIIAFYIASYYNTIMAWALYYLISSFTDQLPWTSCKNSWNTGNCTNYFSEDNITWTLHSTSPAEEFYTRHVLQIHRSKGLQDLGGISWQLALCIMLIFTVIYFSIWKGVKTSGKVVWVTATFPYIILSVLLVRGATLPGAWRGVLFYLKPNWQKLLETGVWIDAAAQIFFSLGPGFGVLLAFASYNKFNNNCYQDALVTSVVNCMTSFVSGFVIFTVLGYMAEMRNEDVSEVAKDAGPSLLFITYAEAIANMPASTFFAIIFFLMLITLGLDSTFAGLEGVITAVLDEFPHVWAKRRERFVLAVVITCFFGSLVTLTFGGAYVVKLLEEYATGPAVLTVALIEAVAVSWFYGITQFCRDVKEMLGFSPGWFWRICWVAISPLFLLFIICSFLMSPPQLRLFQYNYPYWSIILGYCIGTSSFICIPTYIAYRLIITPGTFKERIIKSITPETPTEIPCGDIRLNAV

Consider `N#Cc1ccc2[nH]cc(C3CC3CNCc3cccc(F)c3)c2c1` (stereo not drawn) [Example 12, trans-2-[5-Cyanoindol-3-yl]-1-[N-(3-fluorobenzyl)aminomethyl]-cyclopropane], for which the values for the Ki in assay [1] (read-out: SERT Ki) and in assay [2] were 1 to 10 nM and 100 to 1000 nM, respectively.
With `CCCN(CCC)CC1CC1c1c[nH]c2ccc(F)cc12` (stereo not drawn) [Example 77, trans-1-[N,N-Dipropylaminomethyl]-2-[5-fluoroindol-3-yl]-cyclopropane], the Ki in assay [1] (read-out: SERT Ki) was in the range of 10 to 100 nM; in assay [2], 100 to 1000 nM.
In the case of `CCN(CCCNC(=O)OC(C)C)C[C@@H]1C[C@H]1c1c[nH]c2ccc(C#N)cc12` (relative stereo) [Example 100, trans-2-[5-Cyanoindol-3-yl]-1-[N,N-ethyl-2-amino(isopropylcarbamoyl)propylaniinomethyl]-cyclopropane], the Ki was 10 to 100 nM in assay [1] (read-out: SERT Ki) and over 1000 nM in assay [2].
For `Fc1ccc2[nH]cc(C3CC3CN3CCN(Cc4ccccc4)CC3)c2c1` (stereo not drawn) [Example 75, trans-1-[4-Benzyl-piperazin-1-yl-methyl]-2-[5-fluoroindol-3-yl]-cyclopropane], in that order: 10 to 100 nM and 10 to 100 nM.
Consider `CCCOC(=O)NCCCN(CC)C[C@@H]1C[C@H]1c1c[nH]c2ccc(C#N)cc12` (relative stereo) [Example 99, trans-2-[5-Cyanoindol-3-yl]-1-[N,N-ethyl-2-amino(propylcarbamoyl)propylaminomethyl]-cyclopropane], for which the Ki lay in the range of 1 to 10 nM in assay [1] (read-out: SERT Ki) and 100 to 1000 nM in assay [2].
For the molecule `CCN(C)CC1CC1c1c[nH]c2ccc(F)cc12` (stereo not drawn) [Example 184, cis-1-(N-ethyl-N-methylaminomethyl)-2-[5-fluoroindol-3-yl]-cyclopropane], the results for the inhibition constant (Ki) in assay [1] (SERT Ki (nM)) and in assay [2] were 10 to 100 nM and over 1000 nM, respectively.
For `CN(Cc1ccccc1)CC1CC1c1c[nH]c2ccc(F)cc12` (stereo not drawn) [Example 186, cis-1-(N-benzyl-N-methylaminomethyl)-2-[5-fluoroindol-3-yl]-cyclopropane], the Ki in assay [1] (read-out: SERT Ki) was 1 to 10 nM; in assay [2], over 1000 nM.
Regarding `Fc1ccc2[nH]cc([C@@H]3C[C@H]3CNCc3ccccc3)c2c1` (relative stereo) [Example 49, trans-1-(N-Benzlyaminomethyl)-2-[5-fluoroindol-3-yl]-cyclopropane], the values for the Ki in assay [1] (read-out: SERT Ki) and in assay [2] were 10 to 100 nM and 100 to 1000 nM, respectively.
For `CNC(C)C1CC1c1c[nH]c2ccc(C#N)cc12` (racemic) [Example 125, trans-3-[2-(1-Methylamino-ethyl)-cyclopropyl]-1H-indole-5-carbonitrile], in that order: 1 to 10 nM and 100 to 1000 nM.
For `COc1ccc(CNCC2CC2c2c[nH]c3ccc(F)cc23)cc1` (stereo not drawn) [Example 52, trans-2-[5-Fluoroindol-3-yl]-1-[N-(4-methoxybenzyl)aminomethyl]-cyclopropane], in that order: 10 to 100 nM and 100 to 1000 nM.
For `CCN(CCNC(=O)OC(C)C)C[C@@H]1C[C@H]1c1c[nH]c2ccc(F)cc12` (relative stereo) [Example 111], in that order: 1 to 10 nM and 10 to 100 nM.
As to `CCOC(=O)NCCN(CC)C[C@@H]1C[C@H]1c1c[nH]c2ccc(F)cc12` (relative stereo) [Example 109], the figures for the Ki in assay [1] (read-out: SERT Ki) and in assay [2] were 1 to 10 nM and 100 to 1000 nM, respectively.
Take `CCN(CCNC(=O)OC)C[C@@H]1C[C@H]1c1c[nH]c2ccc(C#N)cc12` (relative stereo) [Example 93, trans-2-[5-Cyanoindol-3-yl]-1-[N,N-ethyl-2-amino(methylcarbamoyl)ethylaminomethyl]-cyclopropane]: the inhibition constant (Ki) in assay [1] (read-out: SERT Ki) was 1 to 10 nM; in assay [2], over 1000 nM.
Regarding `Fc1ccc2[nH]cc(C3CC3CNCCCc3cccnc3)c2c1` (stereo not drawn) [Example 63, trans-2-[5-Fluoroindol-3-yl]-1-[N-3-(3-pyridyl)propylaminomethyl]-cyclopropane], the Ki in assay [1] (read-out: SERT Ki) and in assay [2] was 10 to 100 nM each time.
On to `CN(C)CC1CC1c1c[nH]c2ccc(C#N)cc12` (single isomer, unassigned) [Example 129a, Cis-2-[5-Cyanoindol-3-yl]-1-(N,N-dimethylaminomethyl)cyclopropane], for which the Ki was 10 to 100 nM in assay [1] (SERT Ki (nM)) and over 1000 nM in assay [2].
In the case of `CN(C)CC1CC1c1c[nH]c2ccc(C#N)cc12` (single isomer, unassigned) [Example 129b, Cis-2-[5-Cyanoindol-3-yl]-1-(N,N-dimethylaminomethyl)cyclopropane], the Ki in assay [1] (SERT Ki (nM)) was 1 to 10 nM; in assay [2], over 1000 nM.
As for `N#Cc1ccc2[nH]cc(C3CC3CN3CCNCC3)c2c1` (stereo not drawn) [Example 35, trans-2-[5-Cyanoindol-3-yl]-1-(piperazin-1-yl-methyl)-cyclopropane], the results for the Ki in assay [1] (SERT Ki (nM)) and in assay [2] were 1 to 10 nM and over 1000 nM, respectively.
Turning to `CCCOC(=O)NCCN(C)C[C@@H]1C[C@H]1c1c[nH]c2ccc(F)cc12` (relative stereo) [Example 102], the figures for the Ki in assay [1] (read-out: SERT Ki) and in assay [2] were 1 to 10 nM and 100 to 1000 nM, respectively.
Regarding `CCOC(=O)NCCCN(CC)C[C@@H]1C[C@H]1c1c[nH]c2ccc(F)cc12` (relative stereo) [Example 113], the Ki in assay [1] (read-out: SERT Ki) was 10 to 100 nM; in assay [2], 100 to 1000 nM.
Consider `CCCNCC1CC1c1c[nH]c2ccc(F)cc12` (centres unmarked) [Example 142], for which the Ki in assay [1] (read-out: SERT Ki) was 10 to 100 nM; in assay [2], 100 to 1000 nM.
As to `Fc1ccc2[nH]cc(C3CC3CN3CCCC3)c2c1` (stereo not drawn) [Example 84, trans-2-[5-Fluoroindol-3-yl]-1-[pyrrolidin-1-yl-methyl]-cyclopropane], the values for the Ki in assay [1] (read-out: SERT Ki) and in assay [2] were 1 to 10 nM and 100 to 1000 nM, respectively.
The corresponding values for `Fc1ccc(CCNCC2CC2c2c[nH]c3ccc(F)cc23)cc1` (stereo not drawn) [Example 61, trans-2-[5-Fluoroindol-3-yl]-1-[N-(4-fluorophenyl)ethylaminomethyl]-cyclopropane] are 10 to 100 nM and 10 to 100 nM.
With `Fc1ccc2[nH]cc(C3CC3CN3CCOCC3)c2c1` (centres unmarked) [Example 141], the Ki in assay [1] (read-out: SERT Ki) was 10 to 100 nM; in assay [2], 100 to 1000 nM.
Consider `N#Cc1ccc2[nH]cc(C3CC3CN3CCOCC3)c2c1` (centres unmarked) [Example 137], for which the Ki was 10 to 100 nM in assay [1] (SERT Ki (nM)) and over 1000 nM in assay [2].
As to `COC(=O)NCCCN(C)C[C@@H]1C[C@H]1c1c[nH]c2ccc(C#N)cc12` (relative stereo) [Example 89, trans-2-[5-Cyanoindol-3-yl]-1-[N,N-methyl-2-amino(methylcarbamoyl)propylaminomethyl]-cyclopropane], the figures for the Ki in assay [1] (read-out: SERT Ki) and in assay [2] were 1 to 10 nM and over 1000 nM, respectively.
In the case of `N#Cc1ccc2[nH]cc(C3CC3CNCc3ccccn3)c2c1` (stereo not drawn) [Example 14, trans-2-[5-Cyanoindol-3-yl]-1-[N-(2-pyridylmethyl)aminomethyl]-cyclopropane], the Ki is 10 to 100 nM in assay [1] (read-out: SERT Ki) and 100 to 1000 nM in assay [2].
`Fc1ccc2[nH]cc(C3CC3CNCCc3c[nH]c4ccccc34)c2c1` (stereo not drawn) [Example 68, trans-2-[5-Fluoroindol-3-yl]-1-[N-2-(3-indolyl)ethylaminomethyl]-cyclopropane]: the Ki was in the range of 1 to 10 nM in assay [1] (read-out: SERT Ki) and 10 to 100 nM in assay [2].
`N#Cc1ccc2[nH]cc(C3CC3CNCCCc3ccccc3)c2c1` (stereo not drawn) [Example 21, trans-2-[5-Cyanoindol-3-yl]-1-[N-3-phenylpropylaminomethyl]-cyclopropane]: the Ki in assay [1] (read-out: SERT Ki) lay within 1 to 10 nM; in assay [2] it was 10 to 100 nM.

Usually Ki stands for the dissociation constant of the complex between target and ligand, obtained from inhibition or displacement.
